Laboratory results reported in ChEMBL document CHEMBL1909046, “DrugMatrix in vitro pharmacology data”.

Legend:
[1] = target: T1, Estrogen receptor (Homo sapiens, UniProt P03372); details: sf9; also: in other assays of this panel Not Active means under 50% inhibition at 10 µM
T1 sequence (P03372 whole entry): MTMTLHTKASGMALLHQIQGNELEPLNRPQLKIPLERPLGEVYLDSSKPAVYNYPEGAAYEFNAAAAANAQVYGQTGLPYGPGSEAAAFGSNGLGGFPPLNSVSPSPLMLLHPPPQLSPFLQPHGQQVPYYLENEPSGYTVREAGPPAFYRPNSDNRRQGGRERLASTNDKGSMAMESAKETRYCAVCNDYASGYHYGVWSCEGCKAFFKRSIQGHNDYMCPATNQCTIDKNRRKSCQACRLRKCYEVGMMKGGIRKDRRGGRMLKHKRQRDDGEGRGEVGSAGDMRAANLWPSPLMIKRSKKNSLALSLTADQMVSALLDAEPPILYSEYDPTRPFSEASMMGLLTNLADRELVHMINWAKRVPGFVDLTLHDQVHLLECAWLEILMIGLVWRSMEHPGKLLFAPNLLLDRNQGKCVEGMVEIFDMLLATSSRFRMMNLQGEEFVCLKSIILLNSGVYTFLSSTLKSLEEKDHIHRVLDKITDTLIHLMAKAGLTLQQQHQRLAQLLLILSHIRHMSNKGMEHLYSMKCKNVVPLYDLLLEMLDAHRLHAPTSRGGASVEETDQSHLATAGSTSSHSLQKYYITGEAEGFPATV

[2] = target: T2, Vasoactive intestinal polypeptide receptor 1 (Homo sapiens, UniProt P32241); assay type: cell membranes, Membrane; details: ht-29; also: in other assays of this panel Not Active means under 50% inhibition at 10 µM
T2 sequence (P32241 whole entry): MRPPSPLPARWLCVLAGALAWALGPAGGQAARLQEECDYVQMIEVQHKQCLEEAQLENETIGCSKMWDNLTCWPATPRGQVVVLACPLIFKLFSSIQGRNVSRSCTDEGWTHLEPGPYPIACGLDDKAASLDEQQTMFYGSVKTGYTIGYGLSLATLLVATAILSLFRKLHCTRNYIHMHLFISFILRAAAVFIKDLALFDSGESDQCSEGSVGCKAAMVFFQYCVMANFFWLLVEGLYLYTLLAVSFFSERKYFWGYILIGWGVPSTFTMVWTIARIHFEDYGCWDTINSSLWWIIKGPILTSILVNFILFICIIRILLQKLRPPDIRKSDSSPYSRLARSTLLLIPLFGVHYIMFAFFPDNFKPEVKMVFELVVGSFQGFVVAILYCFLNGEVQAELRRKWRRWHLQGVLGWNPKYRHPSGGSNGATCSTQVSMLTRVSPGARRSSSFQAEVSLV

[3] = target: T3, Receptor-type tyrosine-protein phosphatase C (Homo sapiens, UniProt P08575); parameters: species or system Escherichia coli;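 also: inhibition of CD45 enzyme activity measured using DiFMUP as substrate; in other assays of this panel Not Active means under 50% inhibition at 10 µM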
T3 sequence (P08575 whole entry): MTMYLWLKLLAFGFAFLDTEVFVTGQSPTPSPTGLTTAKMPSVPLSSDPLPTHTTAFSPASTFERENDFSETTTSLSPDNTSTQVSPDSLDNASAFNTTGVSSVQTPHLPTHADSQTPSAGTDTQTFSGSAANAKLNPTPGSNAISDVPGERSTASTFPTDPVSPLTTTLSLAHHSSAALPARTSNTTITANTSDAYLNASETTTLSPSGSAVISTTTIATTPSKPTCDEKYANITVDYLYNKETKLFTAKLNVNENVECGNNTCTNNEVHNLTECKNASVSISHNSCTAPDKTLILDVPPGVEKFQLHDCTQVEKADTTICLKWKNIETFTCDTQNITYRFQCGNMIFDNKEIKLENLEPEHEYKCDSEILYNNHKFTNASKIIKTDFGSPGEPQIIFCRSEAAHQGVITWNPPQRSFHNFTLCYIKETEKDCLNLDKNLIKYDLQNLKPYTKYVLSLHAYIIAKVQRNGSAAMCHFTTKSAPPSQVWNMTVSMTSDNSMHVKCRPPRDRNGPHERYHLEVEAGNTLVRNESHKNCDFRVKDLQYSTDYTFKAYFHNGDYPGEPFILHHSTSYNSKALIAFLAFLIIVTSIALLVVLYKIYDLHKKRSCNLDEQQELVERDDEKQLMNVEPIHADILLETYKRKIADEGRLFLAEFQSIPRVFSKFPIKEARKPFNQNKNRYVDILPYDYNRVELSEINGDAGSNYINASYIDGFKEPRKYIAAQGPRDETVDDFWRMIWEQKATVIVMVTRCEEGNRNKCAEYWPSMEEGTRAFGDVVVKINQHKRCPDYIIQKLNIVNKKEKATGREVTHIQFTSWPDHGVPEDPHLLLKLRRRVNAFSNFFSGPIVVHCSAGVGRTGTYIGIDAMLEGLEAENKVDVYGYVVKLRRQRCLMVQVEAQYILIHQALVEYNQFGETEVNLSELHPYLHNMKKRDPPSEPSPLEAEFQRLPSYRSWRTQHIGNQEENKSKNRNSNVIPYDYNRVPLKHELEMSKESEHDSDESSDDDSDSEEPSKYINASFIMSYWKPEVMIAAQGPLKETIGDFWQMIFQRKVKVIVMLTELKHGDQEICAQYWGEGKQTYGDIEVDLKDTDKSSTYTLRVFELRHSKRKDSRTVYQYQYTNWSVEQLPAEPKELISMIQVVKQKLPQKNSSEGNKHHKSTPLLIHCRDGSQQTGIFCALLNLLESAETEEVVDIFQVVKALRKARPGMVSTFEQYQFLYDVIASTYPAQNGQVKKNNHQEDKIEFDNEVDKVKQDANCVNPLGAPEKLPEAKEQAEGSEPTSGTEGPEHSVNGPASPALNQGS

[4] = target: T4, C-C chemokine receptor type 4 (Homo sapiens, UniProt P51679); assay type: cell membranes, Membrane; details: chem-1; also: in other assays of this panel Not Active means under 50% inhibition at 10 µM
T4 sequence (P51679 whole entry): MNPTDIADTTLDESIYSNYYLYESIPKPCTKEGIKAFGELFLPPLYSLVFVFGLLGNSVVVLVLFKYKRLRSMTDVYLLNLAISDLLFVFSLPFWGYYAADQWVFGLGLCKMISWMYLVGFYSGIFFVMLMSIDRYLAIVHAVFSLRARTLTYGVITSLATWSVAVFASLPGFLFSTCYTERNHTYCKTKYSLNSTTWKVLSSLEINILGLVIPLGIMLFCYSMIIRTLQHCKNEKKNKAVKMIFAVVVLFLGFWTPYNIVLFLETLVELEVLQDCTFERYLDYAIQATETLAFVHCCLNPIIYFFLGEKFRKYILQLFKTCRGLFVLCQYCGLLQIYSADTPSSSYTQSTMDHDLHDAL

[5] = target: Insulin receptor (Rattus norvegicus, UniProt P15127); assay type: cell membranes, Wistar, Liver, Membrane; also: in other assays of this panel Not Active means under 50% inhibition at 10 µM
Chain of Insulin receptor (P15127 27-759 limits assumed): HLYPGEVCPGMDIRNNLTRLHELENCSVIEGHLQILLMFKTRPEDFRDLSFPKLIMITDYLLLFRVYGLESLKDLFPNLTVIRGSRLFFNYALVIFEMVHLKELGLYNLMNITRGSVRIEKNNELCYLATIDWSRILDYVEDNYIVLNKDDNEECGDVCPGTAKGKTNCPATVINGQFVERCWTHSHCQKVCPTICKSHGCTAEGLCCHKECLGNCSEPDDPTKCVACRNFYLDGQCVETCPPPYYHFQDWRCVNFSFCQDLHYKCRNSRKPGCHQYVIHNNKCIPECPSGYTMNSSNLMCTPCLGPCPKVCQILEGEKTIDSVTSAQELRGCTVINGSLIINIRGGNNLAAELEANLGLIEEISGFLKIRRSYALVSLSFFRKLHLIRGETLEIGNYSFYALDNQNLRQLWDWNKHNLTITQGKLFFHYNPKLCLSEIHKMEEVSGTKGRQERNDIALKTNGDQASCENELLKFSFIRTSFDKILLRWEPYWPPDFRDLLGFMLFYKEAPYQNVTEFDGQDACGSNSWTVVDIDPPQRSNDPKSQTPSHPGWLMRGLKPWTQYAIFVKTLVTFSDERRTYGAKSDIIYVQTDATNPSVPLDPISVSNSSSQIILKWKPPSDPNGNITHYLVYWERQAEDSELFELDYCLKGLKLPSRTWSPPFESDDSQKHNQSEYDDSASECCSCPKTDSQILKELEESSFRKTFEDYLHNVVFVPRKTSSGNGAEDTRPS
Chain of Insulin receptor (P15127 764-1383 limits assumed): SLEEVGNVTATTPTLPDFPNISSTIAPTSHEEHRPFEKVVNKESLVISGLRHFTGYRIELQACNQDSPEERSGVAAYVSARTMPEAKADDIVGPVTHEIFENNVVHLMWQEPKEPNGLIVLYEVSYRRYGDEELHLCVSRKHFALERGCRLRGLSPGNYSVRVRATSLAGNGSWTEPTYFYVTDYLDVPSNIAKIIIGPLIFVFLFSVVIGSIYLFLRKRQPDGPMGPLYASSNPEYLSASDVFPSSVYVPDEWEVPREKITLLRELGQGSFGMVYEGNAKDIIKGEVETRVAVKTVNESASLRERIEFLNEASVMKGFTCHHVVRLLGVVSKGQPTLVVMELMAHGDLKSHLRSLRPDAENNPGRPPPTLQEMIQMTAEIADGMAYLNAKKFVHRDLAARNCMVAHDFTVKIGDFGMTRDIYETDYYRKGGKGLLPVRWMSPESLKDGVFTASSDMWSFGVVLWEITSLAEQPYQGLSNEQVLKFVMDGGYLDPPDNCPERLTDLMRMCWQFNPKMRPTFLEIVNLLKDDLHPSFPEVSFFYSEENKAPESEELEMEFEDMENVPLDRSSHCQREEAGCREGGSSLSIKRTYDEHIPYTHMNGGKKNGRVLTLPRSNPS

[6] = DRUGMATRIX: Nicotinic Acetylcholine radioligand binding (ligand: [125I] Epibatidine); assay type: cell membranes, Membrane; details: imr-32; Not Active = under 50% inhibition at 10 µM
[7] = DRUGMATRIX: Purinergic P2X radioligand binding (ligand: [3H] alpha, beta-Methylene-ATP); assay type: cell membranes, Oryctolagus cuniculus, New Zealand albino, Urinary bladder, Membrane; details: Not Active = under 50% inhibition at 10 µM

GADOPENTETATE DIMEGLUMINE
Not Active: IC50 [1] | Ki [1] | IC50 [2] | Ki [2] | IC50 [3] | Ki [3] | IC50 [4] | Ki [4] | IC50 [5] | Ki [5] | IC50 [6] | Ki [6] | IC50 [7] | Ki [7]

Nc1ccc2c3c(cccc13)C(=O)NC2=O
Not Active: IC50 [1] | IC50 [2] | IC50 [3] | IC50 [4] | IC50 [5] | IC50 [6] | Ki [6] | IC50 [7] | Ki [7]

C[n+]1ccccc1/C=N/O.[Cl-] [PRALIDOXIME CHLORIDE]
Not Active: IC50 [1] | IC50 [2] | IC50 [3] | IC50 [4] | IC50 [5] | IC50 [6] | Ki [6] | IC50 [7] | Ki [7]

O=c1cnn([C@@H]2O[C@H](CO)[C@@H](O)[C@H]2O)c(=O)[nH]1 [6-AZAURIDINE]
Not Active: IC50 [1] | IC50 [2] | IC50 [3] | IC50 [4] | IC50 [5] | IC50 [6] | Ki [6] | IC50 [7] | Ki [7]

Cn1c(=O)c2c(ncn2CC(O)CO)n(C)c1=O (stereo not drawn) [DYPHYLLINE]
Not Active: IC50 [1] | IC50 [2] | IC50 [3] | IC50 [4] | IC50 [5] | IC50 [6] | Ki [6] | IC50 [7] | Ki [7]

O=c1cc(N2CCOCC2)oc2c(-c3ccccc3)cccc12 [LY-294002]
Not Active: IC50 [1] | IC50 [2] | IC50 [3] | IC50 [4] | IC50 [5] | IC50 [6] | Ki [6] | IC50 [7] | Ki [7]

CC(C)(C)NC(=O)[C@H]1CC[C@H]2[C@@H]3CC[C@H]4NC(=O)C=C[C@]4(C)[C@H]3CC[C@]12C [FINASTERIDE]
Not Active: IC50 [1] | IC50 [2] | IC50 [3] | IC50 [4] | IC50 [5] | IC50 [6] | Ki [6] | IC50 [7] | Ki [7]

CCN(CC)CCOCCC1=CCC2CC1C2(C)C (stereo not drawn) [MYRTECAINE]
Not Active: IC50 [1] | IC50 [2] | IC50 [3] | IC50 [4] | IC50 [5] | IC50 [6] | Ki [6] | IC50 [7] | Ki [7]

COC(=O)Nc1nc2ccc([S+]([O-])c3ccccc3)cc2[nH]1 (stereo not drawn) [OXFENDAZOLE]
Not Active: IC50 [1] | IC50 [2] | IC50 [3] | IC50 [4] | IC50 [5] | IC50 [6] | Ki [6] | IC50 [7] | Ki [7]

COC1=C(OC)C(=O)C(CCCCCCCCCCO)=C(C)C1=O [IDEBENONE]
Not Active: IC50 [1] | IC50 [2] | IC50 [3] | IC50 [4] | IC50 [5] | IC50 [6] | Ki [6] | IC50 [7] | Ki [7]

C[C@]12C=CC(=O)C=C1CC[C@@H]1[C@@H]2[C@@H](O)C[C@@]2(C)[C@H]1CC[C@]2(O)C(=O)CO [PREDNISOLONE]
Not Active: IC50 [1] | IC50 [2] | IC50 [3] | IC50 [4] | IC50 [5] | IC50 [6] | Ki [6] | IC50 [7] | Ki [7]

COc1ccc(C2C(=O)c3ccccc3C2=O)cc1 [ANISINDIONE]
Not Active: IC50 [1] | IC50 [2] | IC50 [3] | IC50 [4] | IC50 [5] | IC50 [6] | Ki [6] | IC50 [7] | Ki [7]

O=C(c1ccccc1C(F)(F)F)N1CCC(Cc2ccccc2)CC1
Not Active: IC50 [1] | IC50 [2] | IC50 [3] | IC50 [4] | IC50 [5] | IC50 [6] | Ki [6] | IC50 [7] | Ki [7]

CCC1(C)CC(=O)NC1=O (stereo not drawn) [ETHOSUXIMIDE]
Not Active: IC50 [1] | IC50 [2] | IC50 [3] | IC50 [4] | IC50 [5] | IC50 [6] | Ki [6] | IC50 [7] | Ki [7]

GRAMICIDIN
Not Active: IC50 [1] | Ki [1] | IC50 [2] | Ki [2] | IC50 [3] | Ki [3] | IC50 [4] | Ki [4] | IC50 [5] | Ki [5] | IC50 [6] | Ki [6] | IC50 [7] | Ki [7]

OC(CCCN1CCCCC1)(c1ccccc1)c1ccccc1 [DIPHENIDOL]
Not Active: IC50 [1] | IC50 [2] | IC50 [3] | IC50 [4] | IC50 [5] | IC50 [6] | Ki [6] | IC50 [7] | Ki [7]

CCC(=O)O[C@]1(C(=O)CCl)[C@@H](C)C[C@H]2[C@@H]3CCC4=CC(=O)C=C[C@]4(C)[C@@]3(F)[C@@H](O)C[C@@]21C [CLOBETASOL PROPIONATE]
Not Active: IC50 [1] | IC50 [2] | IC50 [3] | IC50 [4] | IC50 [5] | IC50 [6] | Ki [6] | IC50 [7] | Ki [7]
